Test results as given in the supplement of paper PMC10290057.
Structures can show the parent of a compound that is named as a salt.

Columns and labels:
[1] = tested on: HCT116; assay: efficacy (fitted maximal change in viability relative to DMSO control); higher = less cytotoxic (negative = loss of viability); conditions: 48 h
[2] = tested on: HCT116; assay: AC50 cell viability (CellTiter-Glo); higher = less potent; conditions: 48 h
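Throughout, for AC50 cell viability (CellTiter-Glo): HCT116 colorectal carcinoma cells screened at five concentrations per compound, luminescent viability scaled between DMSO wells and empty wells on each plate, curves fitted per compound.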
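Throughout, for efficacy (fitted maximal change in viability relative to DMSO control): Luminescence-based viability readout, five doses per compound, normalized against on-plate DMSO and empty-well controls, followed by dose-response curve fitting for every drug.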

Cc1cc(Nc2cc(N3CCN(C)CC3)nc(Sc3ccc(NC(=O)C4CC4)cc3)n2)[nH]n1 [Tozasertib]
efficacy [1]: -95.2% | AC50 cell viability [2]: 7.42 µM

CN(C)c1ccc(C(=O)NCCCCCCC(=O)NO)cc1 [M-344]
efficacy [1]: -84.5% | AC50 cell viability [2]: 0.742 µM

Cc1ncc(NC(=O)c2ccc(CN3CCN(C)CC3)c(C(F)(F)F)c2)cc1Nc1nccc(-c2cccnc2)n1 [Flumatinib mesylate]
efficacy [1]: -95.8% | AC50 cell viability [2]: 18.6 µM

COC1=CC=C2C(=CC=NC2=C1)OC3=CC=C(NC(=O)\C4=C(C)\N(CC(C)(C)O)N(C4=O)C5=CC=CC=C5)C=C3F [AMG-1]
efficacy [1]: -67.9% | AC50 cell viability [2]: 11.8 µM

C=CC[C@@H]1/C=C(\C)C[C@H](C)C[C@H](OC)[C@H]2O[C@@](O)(C(=O)C(=O)N3CCCC[C@H]3C(=O)O[C@H](/C(C)=C/[C@@H]3CC[C@@H](O)[C@H](OC)C3)[C@H](C)[C@@H](O)CC1=O)[C@H](C)C[C@@H]2OC [FK-506]
efficacy [1]: -91.2% | AC50 cell viability [2]: 23.5 µM

CC1=C(C)C\2=C(S1)[N]3C(=NN=C3[C@H](CC(N)=O)\N=C2C4=CC=C(Cl)C=C4)C [CPI-203]
efficacy [1]: -58.5% | AC50 cell viability [2]: 0.372 µM

O=C(Nc1nc2cccc(-c3ccc(CN4CC[S+](=O)([O-])CC4)cc3)n2n1)C1CC1 [Filgotinib]
efficacy [1]: -70.1% | AC50 cell viability [2]: 7.42 µM

CC1=C(C)C\2=C(S1)[N]3C(=NN=C3C(CC(N)=O)\N=C2C4=CC=C(Cl)C=C4)C (stereo not drawn) [CPI-203]
efficacy [1]: -62.8% | AC50 cell viability [2]: 0.295 µM

COc1cc2c(NC3CCN(C4CCCCC4)CC3)nc(N3CCCN(C(C)C)CC3)nc2cc1OCCCN1CCCCC1 [UNC-0646]
efficacy [1]: -102% | AC50 cell viability [2]: 2.95 µM

CCN1CCN(Cc2ccc(NC(=O)c3ccc(C)c(/C=C/c4cnc5[nH]ccc5c4OC)c3)cc2C(F)(F)F)CC1 [HG-6-64-1]
efficacy [1]: -96.2% | AC50 cell viability [2]: 2.95 µM

O=C(/C=C/C=C/c1ccc2c(c1)OCO2)N1CCCCC1 [Piperine]
efficacy [1]: -46% | AC50 cell viability [2]: 20.9 µM

C[N]1C=NC=C1[C@@](N)(C2=CC=C(Cl)C=C2)C3=CC=C4N(C)C(=O)\C=C(\C5=CC=CC(=C5)Cl)C4=C3 [Tipifarnib]
efficacy [1]: -107% | AC50 cell viability [2]: 9.34 µM

O=C(/C=C/c1cccc([S+](=O)([O-])Nc2ccccc2)c1)NO [Belinostat]
efficacy [1]: -87.7% | AC50 cell viability [2]: 0.525 µM

CNC(=O)c1ccccc1Nc1nc(Nc2ccc3c(c2OC)CCC[C@@H](N2CCN(CCO)CC2)C3)ncc1Cl
efficacy [1]: -110% | AC50 cell viability [2]: 4.17 µM

COc1cc(C(N)=O)ccc1NC(=O)[C@@H]1N[C@@H](CC(C)(C)C)[C@@]2(C(=O)Nc3cc(Cl)ccc32)[C@H]1c1cccc(Cl)c1F [RO8994]
efficacy [1]: -110% | AC50 cell viability [2]: 0.934 µM

CCn1c(-c2nonc2N)nc2cncc(CNC3CCNCC3)c21
efficacy [1]: -43.9% | AC50 cell viability [2]: 10.5 µM

Nc1ccc(/C=C/C(=O)NCc2cc3cc(-c4ccc(C(=O)N5CCC(F)(F)CC5)cc4)cc(-c4ccc(F)cc4)c3o2)cn1 [KPT-9274]
efficacy [1]: -91.7% | AC50 cell viability [2]: 0.59 µM

CC(C)NC[C@@H](C(=O)N1CCN(c2ncnc3c2[C@H](C)C[C@H]3O)CC1)c1ccc(Cl)cc1 [Ipatasertib]
efficacy [1]: -96.8% | AC50 cell viability [2]: 13.2 µM

Cn1ncc(Cl)c1-c1cc(C(=O)N[C@H](CN)Cc2cccc(F)c2)sc1Cl
efficacy [1]: -103% | AC50 cell viability [2]: 14.8 µM

CN1C(=O)\C(=C/C(=C1/NC2=C(F)C=C(I)C=C2)C(=O)NOCCO)C [AZD-8330]
efficacy [1]: -68.6% | AC50 cell viability [2]: 0.00934 µM

Cc1nnn(C)c1-c1cnc2c3ccc(C(C)(C)O)cc3n([C@H](c3ccccc3)C3CCOCC3)c2c1
efficacy [1]: -82.9% | AC50 cell viability [2]: 0.0186 µM

O=C1[C@H](Cc2ccc(O)cc2)N2C(=O)CCN(C(=O)NCc3ccccc3)[C@H]2CN1Cc1cccc2ccccc12 [ICG-001]
efficacy [1]: -67.2% | AC50 cell viability [2]: 2.09 µM

CN1CCN(c2cccc(Nc3nc4c(-c5ccc([S+](C)(=O)[O-])cc5)cccn4n3)c2)CC1
efficacy [1]: -121% | AC50 cell viability [2]: 16.6 µM

C[S+]([O-])c1ccc(-c2nc(-c3ccc(F)cc3)c(-c3ccncc3)[nH]2)cc1 (stereo not drawn)
efficacy [1]: -83.2% | AC50 cell viability [2]: 18.6 µM

Cc1ccc(C(=O)Nc2cccc(C(F)(F)F)c2)cc1-c1ccc2nc(NCCN3CCOCC3)ncc2c1 [AMG-47a]
efficacy [1]: -101% | AC50 cell viability [2]: 2.35 µM

Oc1ccc(/C=C/c2cc(O)cc(O)c2)cc1 [Resveratrol]
efficacy [1]: -49.1% | AC50 cell viability [2]: 20.9 µM

Cc1c(CN2CCC(Nc3ncnc4sc(CC(F)(F)F)cc34)CC2)ccc2c1cc(C#N)n2Cc1cn[nH]c1 [MI-503]
efficacy [1]: -76% | AC50 cell viability [2]: 3.72 µM

COc1cc(N2CCC(N3CCN(C)CC3)CC2)ccc1Nc1ncnc(Nc2ccccc2[S+](=O)([O-])C(C)C)n1 [ASP-3026]
efficacy [1]: -82.2% | AC50 cell viability [2]: 4.68 µM

CCN(CC)CCNC(=O)c1c(C)[nH]c(/C=C2\C(=O)Nc3ccc(F)cc32)c1C [Sunitinib malate]
efficacy [1]: -98.2% | AC50 cell viability [2]: 3.32 µM
